# Assay results from US20220096450A1, “Compounds and Methods for Treating or Preventing Heart Failure” (DREXEL UNIVERSITY, priority 2019, published 2022).
# Key:
# [1] = Cell Counting Kit-8 cytotoxicity assay in H9C2 cells; type: cell-based; details: rat
# Protocol: H9C2 cells, a rat ventricular cardiomyoblast cell line were obtained from ATCC (CRL-1446) and maintained in Dulbecco's modified Eagle's medium (DMEM) containing 10% FBS and 1× GlutaMAX. For hypertrophy studies, the cells were plated onto 4-well glass chamber slides precoated with poly-D-lysine. The maintenance medium was aspirated after 24 h and the cells were serum-starved overnight in DMEM containing 1% FBS and 1× GlutaMAX and then incubated for 48 h in fresh serum-starved medium containing isoproterenol, as indicated.
# Cytotoxicity assays were conducted under the same conditions used for hypertrophy assays with NVCMs or H9C2 cells, as described elsewhere herein.
# [2] = system: TAC mouse model of heart failure; type: in vivo; details: 10 mg/kg i.p. daily
# Protocol: Male C57BL/6J mice 10-14 weeks of age were purchased from The Jackson Laboratory (Bar Harbor, Me.).
# Mice were anesthetized with isofluran or ketamine/xylazine. The mice were orally intubated and placed on a Harvard volume-cycled rodent ventilator to maintain respiration during surgery. The TAC procedure was performed by tying the aortic arch between the brachiocephalic trunk (innominate artery) and the left carotid artery against a 27-gauge needle spacer with a 7-0 silk suture, followed by immediate removal of the needle. For sham surgeries, thoracotomy was performed and the aorta was surgically exposed without any further intervention. Following surgical closure of the chest, the animals were allowed to recover from anesthesia, followed by post-operative care. The animals were euthanized 12 weeks post-surgery; hearts were harvested, weighed and tibia lengths were measured.
# Sterile stock solutions of vehicle only [NMP:PG:kleptose in water (10:40:50)] were similarly prepared each week and stored in aliquots at 4° C. until use. […] (to minimize precipitation), and then cooled to room temperature.
# Transthoracic echocardiography was used to noninvasively quantify cardiac structural and functional changes during the progression to heart failure in the TAC mouse model. Measurements were conducted with animals under 1-3% isoflurane anesthesia using a Vevo® 2100 Imaging System with a high-frequency (18-38 MHz) probe (VisualSonics MS400) (Kohut et al., 2016, J. Cardiovasc. Ultrasound 24: 229-238). Echocardiography using color Doppler ultrasound was performed at 1 week after surgery to confirm the aortic constriction. The aortic constriction was further confirmed by conducting color Doppler and pulsed wave Dopier measurements at 12 weeks after surgery. Baseline echocardiography evaluations were performed 1-2 days prior to surgery. For these studies, parasternal long and short axis images were obtained in two-dimensional B-mode and M-mode. Additional images were obtained at regular intervals (2, 4, 6, 8, 10, 12 weeks) after surgery. To evaluate cardiac structure and function, the echocardiographic data were used to determine left ventricle (LV) end-diastolic diameter, LV end-systolic diameter, LV end-diasolic volume, LV ejection fraction, LV fractional shortening, and LV mass.
# Mouse hearts were collected at 12 weeks post surgery, fixed in 10% buffered formalin, and then embedded in paraffin blocks, which were used to prepare serial 4 μm thick heart sections. To detect interstitial fibrosis, heart sections were stained with Masson's trichrome which colors collagen blue and cytoplasm red. Digital images of the slides were captured at 160× magnification using a Leica DFC290 digital camera in conjunction with a Leica MZ16F microscope. […] For each heart, 2 sections taken from the mid-ventricle were analyzed. […] Images were acquired using a FV3000 Olympus Confocal Microscope and analyzed in a blinded manner by two observers. Five field views per mid-ventricle heart section were analyzed by measuring the cross-sectional area of 100 cells per field view using ImageJ. A total of 500 cells per heart section were measured.
# All data are expressed as means±SEM. Statistical significance was evaluated for comparison between 3 or more means using one-way ANOVA with Tukey-Kramer post hoc test. For the echcocardiography data, obtained prior to and at two-week intervals after surgery, statistical significance was evaluated using two-way repeated ANOVA with Bonferroni post hoc test.
# [3] = echocardiography, TAC mice, 12 weeks
compound,measurement,setting,value
"COc1nc(-c2ncccc2C)cc(-c2ccc(N)cc2)c1C#N [FC9402, 4-(4-aminophenyl)-2-methoxy-6-(3-methylpyridin-2-yl)pyridine-3-carbonitrile]",CC50 at 48 h,[1],56 ± 10 µM
same,survival after 12 weeks,[2]; TAC mice,100%
same,"cardiac enlargement (gross morphology, heart weight to tibia length)","[2]; TAC mice, 12 weeks",prevented the TAC-induced cardiac enlargement
same,"left ventricle function (ejection fraction, fractional shortening)",[2]; [3],preserved left ventricle function
same,"left ventricle size (diameter, volume, mass)",[2]; [3],maintained left ventricle size
same,mice that developed heart failure,[2]; lung weight/tibia length above 95% confidence interval of sham,20%
